Source: ChEMBL document CHEMBL1133961, “Chemo-enzymatic synthesis of the Galili epitope Gal(alpha)(1-->3)Galbeta(1-->4)GlcNAc on a homogeneously soluble PEG polymer by a multi-enzyme system” (Bioorg Med Chem Lett, 2001)

Tests used:
[1] = (§1) Kinetic data for inhibition of Beta-1,4-GalT by polymer-supported Nacetylglucosamine.; conditions: human
Homo sapiens = organism: Homo sapiens; assay: (§2) Kinetic data for inhibition of Beta-1,4-GalT by free N-acetyl-glucosamine
[2] = as §2; conditions: human
[3] = as §2; parameters: species or system Homo sapiens
[4] = as §1; parameters: species or system Homo sapiens

## CC(=O)N[C@@H]1[C@@H](O)[C@H](O)[C@@H](CO)O[C@H]1O [N-ACETYLGLUCOSAMINE]
[1]
  Km: 10.5 mM
  Vmax: 4.73 U mg-1
Homo sapiens
  Km: 34.6 mM
[2]
  Vmax: 2.62 U mg-1
[3]
  Ki: 14.3 mM
[4]
  Ki: 0.54 mM
